In patent US8822526B2, “Synergistic pharmaceutical combination for the treatment of cancer” (Piramal Enterprises Limited, priority 2007, dated 2014):

Assays:
[1] = system: human non-small cell lung carcinoma H-460 cells; experiment: In vitro cytotoxicity assay (MTS); settings: for % Cytotoxicity: then complete medium 45 hours
Method: The cytotoxicity assay used was MTS (3-(4,5-dimethylthiazol-2-yl)-5-(3-carboxymethoxyphenyl)-2-(4-sulfophenyl)-2H-tetrazolium, inner salt) assay. The human non-small cell lung carcinoma H-460 cells were seeded at a density of 1500 cells/well in 180 μL of culture medium in 96-well plate and incubated overnight to allow the cells to adhere. Varying concentrations of the drugs contained in the combination were added to the wells and incubated for an appropriate period of time in humidified 5% CO2 incubator at 37° C. in case of a single drug exposure. […] Control wells were treated with a vehicle. At the end of the incubation period, the medium was removed from the wells and 20 μL of MTS (2 mg/mL in phosphate buffer saline, pH 6-6.5 and filter sterilized) and 1 μL of phenazine methosulfate (PMS, 3 mM in phosphate buffered saline, pH 7.3 and filter sterilized) was added to each well and the total volume was adjusted to 200 μL with complete medium. The plate was incubated for 2-4 hours in humidified 5% CO2 incubator at 37° C.
(§1) After completion of the drugs treatment i.e. at the end of 96 hours the plates were processed for MTS viability assay and the percent cytotoxicity was calculated as compared to control.
as §1
(§2) The human non-small cell lung carcinoma H-460 cells were seeded at a density of 1500 cells/well. […] After completion of the drugs treatment i.e. at the end of 120 hours the plates were processed for MTS viability assay and the percent cytotoxicity was calculated as compared to control.
as §2
The human non-small cell lung carcinoma H-460 cells were seeded at a density of 1500 cells/well. […] After completion of the drugs treatment i.e. at the end of 120 hours, the plates were processed for MTS viability assay and the percent cytotoxicity was calculated as compared to control.
(§3) After completion of the drugs treatment i.e. at the end of 48 hours the plates were processed for MTS viability assay and the percent cytotoxicity was calculated as compared to control.
The plates were processed for MTS viability assay and the percent cytotoxicity was calculated as compared to control.
as §3
The human non-small cell lung carcinoma H-460 cells were seeded at a density of 1500 cells/well. As per Table 16A the cells were first treated with either of the drugs alone i.e. with doxorubicin or flavopiridol alone. Doxorubicin treatment was for the first 24 hours followed by complete medium for 96 hours while in case of flavopiridol, the first 24 hours was in complete medium followed by flavopiridol for the next 96 hours. […] After completion of the drugs treatment i.e. at the end of 120 hours the plates were processed for MTS viability assay and the percent cytotoxicity was calculated as compared to control.
As per Table 16B the cells were first treated with either of the drugs alone i.e. with doxorubicin or flavopiridol alone. Flavopiridol treatment was for the first 96 hours followed by complete medium for 24 hours while in case of doxorubicin, the first 96 hours was in complete medium followed by doxorubicin for 24 hours. […] After completion of the drugs treatment i.e. at the end of 120 hours, the plates were processed for MTS viability assay and the percent cytotoxicity was calculated as compared to control.
The human non-small cell lung carcinoma H-460 cells were seeded at a density of 1500 cells/well.

[2] = system: human pancreatic (Panc-1) cell line; experiment: In vitro cytotoxicity assay (MTS); assay type: cell-based; settings: then complete medium 72 hours
[3] = system: pancreatic cells (Panc-1); experiment: Analysis of cell cycle distribution and flow cytometry (sub G1 apoptosis); assay type: cell-based, human; settings: FIG. 3: 70 nM gemcitabine alone (24 hours); 300 nM compound A alone (72 hours); combination 70 nM gemcitabine (24 hours) followed by 300 nM compound A (72 hours)

Compound: CC(=O)O[C@@]12CO[C@@H]1C[C@H](O)[C@@]1(C)C(=O)[C@H](O)C3=C(C)[C@@H](OC(=O)[C@H](O)[C@@H](NC(=O)OC(C)(C)C)c4ccccc4)C[C@@](O)([C@@H](OC(=O)c4ccccc4)[C@H]21)C3(C)C [Docetaxel]
- % Cytotoxicity ([1]; Docetaxel 0.1 nM first 3 hours, 3000 cells/well): 0%
- % Cytotoxicity ([1]; Docetaxel 3 nM first 3 hours, 3000 cells/well): 2%

Compound: CN1CC[C@H](c2c(O)cc(O)c3c(=O)cc(-c4ccccc4Cl)oc23)[C@H](O)C1 [Flavopiridol]
- IC30 concentration after 48 hours treatment ([1]; H-460 cells, 48 hours treatment): 200 nM
- IC50 ([1]; Homo sapiens, NCI-H460, 48 h, read-out: IC50 concentration after 48 hours treatment, H-460 cells, 48 hours treatment): 350 nM
- cytotoxicity at 0.2 µM ([1]; Homo sapiens, NCI-H460, 120 h, Flavopiridol 200 nM alone for 120 hours): 39%
- cytotoxicity at 0.35 µM ([1]; Homo sapiens, NCI-H460, 120 h, Flavopiridol 350 nM alone for 120 hours): 81%

Compound: CC(=O)O[C@H]1C(=O)[C@@]2(C)[C@H]([C@H](OC(=O)c3ccccc3)[C@]3(O)C[C@H](OC(=O)[C@H](O)[C@@H](NC(=O)c4ccccc4)c4ccccc4)C(C)=C1C3(C)C)[C@]1(OC(C)=O)CO[C@@H]1C[C@@H]2O [Paclitaxel]
- % Cytotoxicity ([1]; Paclitaxel 10 nM first 3 hours, 1500 cells/well): 10%

Compound: Nc1ccn([C@@H]2O[C@H](CO)[C@@H](O)C2(F)F)c(=O)n1 [Gemcitabine, 2′-deoxy-2′,2′-difluorocytidine]
- % Cytotoxicity ([2]; Gemcitabine 30 nM first 24 hours): 2%
- % Cytotoxicity ([2]; Gemcitabine 70 nM first 24 hours): 18%
- % Cytotoxicity ([2]; Gemcitabine 100 nM first 24 hours): 38%
- % Cytotoxicity ([2]; Gemcitabine 200 nM first 24 hours): 78%
- apoptosis (sub G1 phase) [3]: 1.7%
